Laboratory results: patent US20260262643A1, “HERBICIDAL BENZOXAZINES” (FMC CORPORATION, priority 2022, published 2026)

What was measured:
[1] = test system: blackgrass; test: Test C postemergence; assay type: in vivo, Alopecurus myosuroides; conditions: 10 days, 0 to 100 scale (0 no effect, 100 complete control)
Procedure, shortened: (§1)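 Pre: seeds in loam/sand, directed soil spray. Post: 1–2 leaf plants, 2–10 cm. Cmpd in non-phytotoxic solvent + surfactant. Greenhouse 10 d; visual rating vs untreated, 0 = none, 100 = complete control.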

[2] = test system: soybean; test: Test C postemergence; assay type: in vivo, Glycine max; conditions: 10 days, 0 to 100 scale (0 no effect, 100 complete control)
Procedure, shortened: as §1

[3] = test system: kochia; test: Test C preemergence; assay type: in vivo, Bassia scoparia
Procedure, shortened: as §1

[4] = test system: ragweed; test: Test C preemergence; assay type: in vivo, Ambrosia artemisiifolia
Procedure, shortened: as §1

[5] = test system: wheat; test: Test C postemergence; assay type: in vivo, Triticum aestivum; conditions: 10 days, 0 to 100 scale (0 no effect, 100 complete control)
Procedure, shortened: as §1

[6] = test system: oat, wild; test: Test C preemergence; assay type: in vivo, Avena fatua
Procedure, shortened: as §1

[7] = test system: wheat; test: Test C preemergence; assay type: in vivo, Triticum aestivum
Procedure, shortened: as §1

[8] = test system: blackgrass; test: Test C preemergence; assay type: in vivo, Alopecurus myosuroides
Procedure, shortened: as §1

[9] = test system: barnyardgrass; test: Test D flooded paddy test; assay type: in vivo, Echinochloa crus-galli; conditions: 250 g ai/ha, applied to paddy water, visual rating after 13 to 14 days, scale 0 to 100 (0 no effect, 100 complete control)
Procedure, shortened: (§2)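 Plants grown to the 2-leaf stage; pots flooded to 3 cm above soil at treatment and held at that depth throughout. Test compounds applied directly to the paddy water. After 13 to 14 days in a greenhouse, response was rated visually versus controls on a 0 (no effect) to 100 (complete control) scale.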

[10] = test system: ducksalad; test: Test D flooded paddy test; assay type: in vivo, Heteranthera limosa; conditions: 250 g ai/ha, applied to paddy water, visual rating after 13 to 14 days, scale 0 to 100 (0 no effect, 100 complete control)
Procedure, shortened: as §2

[11] = test system: corn; test: Test C preemergence; assay type: in vivo, Zea mays
Procedure, shortened: as §1

[12] = test system: barnyardgrass; test: Test C preemergence; assay type: in vivo, Echinochloa crusgalli
Procedure, shortened: as §1

[13] = test system: galium; test: Test C postemergence; assay type: in vivo, Galium aparine; conditions: 10 days, 0 to 100 scale (0 no effect, 100 complete control)
Procedure, shortened: as §1

[14] = test system: sedge, umbrella; test: Test D flooded paddy test; assay type: in vivo, Cyperus difformis; conditions: 250 g ai/ha, applied to paddy water, visual rating after 13 to 14 days, scale 0 to 100 (0 no effect, 100 complete control)
Procedure, shortened: as §2

[15] = test system: pigweed, palmer; test: Test C postemergence; assay type: in vivo, Amaranthus palmeri; conditions: 10 days, 0 to 100 scale (0 no effect, 100 complete control)
Procedure, shortened: as §1

[16] = test system: corn; test: Test C postemergence; assay type: in vivo, Zea mays; conditions: 10 days, 0 to 100 scale (0 no effect, 100 complete control)
Procedure, shortened: as §1

[17] = test system: pigweed, palmer; test: Test C preemergence; assay type: in vivo, Amaranthus palmeri
Procedure, shortened: as §1

[18] = test system: soybean; test: Test C preemergence; assay type: in vivo, Glycine max
Procedure, shortened: as §1

[19] = test system: rice; test: Test D flooded paddy test; assay type: in vivo, Oryza sativa; conditions: 250 g ai/ha, applied to paddy water, visual rating after 13 to 14 days, scale 0 to 100 (0 no effect, 100 complete control)
Procedure, shortened: as §2

[20] = test system: barnyardgrass; test: Test C postemergence; assay type: in vivo, Echinochloa crusgalli; conditions: 10 days, 0 to 100 scale (0 no effect, 100 complete control)
Procedure, shortened: as §1

[21] = test system: horseweed; test: Test C postemergence; assay type: in vivo, Erigeron canadensis; conditions: 10 days, 0 to 100 scale (0 no effect, 100 complete control)
Procedure, shortened: as §1

[22] = test system: ragweed; test: Test C postemergence; assay type: in vivo, Ambrosia artemisiifolia; conditions: 10 days, 0 to 100 scale (0 no effect, 100 complete control)
Procedure, shortened: as §1

[23] = test system: ryegrass, Italian; test: Test C preemergence; assay type: in vivo, Lolium multiflorum
Procedure, shortened: as §1

[24] = test system: ryegrass, Italian; test: Test C postemergence; assay type: in vivo, Lolium multiflorum; conditions: 10 days, 0 to 100 scale (0 no effect, 100 complete control)
Procedure, shortened: as §1

[25] = test system: oat, wild; test: Test C postemergence; assay type: in vivo, Avena fatua; conditions: 10 days, 0 to 100 scale (0 no effect, 100 complete control)
Procedure, shortened: as §1

[26] = test system: foxtail, giant; test: Test C postemergence; assay type: in vivo, Setaria faberi; conditions: 10 days, 0 to 100 scale (0 no effect, 100 complete control)
Procedure, shortened: as §1

[27] = test system: foxtail, giant; test: Test C preemergence; assay type: in vivo, Setaria faberi
Procedure, shortened: as §1

[28] = test system: kochia; test: Test C postemergence; assay type: in vivo, Bassia scoparia; conditions: 10 days, 0 to 100 scale (0 no effect, 100 complete control)
Procedure, shortened: as §1

[29] = 500 g ai/ha, preemergence, 0 to 100 scale (0 no effect, 100 complete control)
[30] = Preemergence, 125 g ai/ha, 0 to 100 scale, 0 no effect, 100 complete control

CCc1ncn(-c2cccc(C(=O)N3CC(C(F)(F)F)Oc4c(C)cccc43)c2)n1 (stereo not shown) [Compound 344]
Plant response rating, Blackgrass ([1]; 500 g ai/ha, postemergence): 90 | Plant response rating, Blackgrass ([1]; Postemergence, 125 g ai/ha): 80 | Plant response rating, Soybean ([2]; 500 g ai/ha, postemergence): 100 | Plant response rating, Soybean ([2]; Postemergence, 125 g ai/ha): 80 | Kochia plant response rating [3, 29]: 100 | Plant response rating, Kochia [3, 30]: 60 | Ragweed plant response rating [4, 29]: 50 | Plant response rating, Ragweed [4, 30]: 0 | Plant response rating, Wheat ([5]; 500 g ai/ha, postemergence): 80 | Plant response rating, Wheat ([5]; Postemergence, 125 g ai/ha): 30 | Oat, Wild plant response rating [6, 29]: 90 | Plant response rating, Oat, Wild [6, 30]: 0 | Wheat plant response rating [7, 29]: 80 | Plant response rating, Wheat [7, 30]: 40 | Blackgrass plant response rating [8, 29]: 100 | Plant response rating, Blackgrass [8, 30]: 90 | Plant response rating, Barnyardgrass (Flood) [9]: 25 | Plant response rating, Ducksalad (Flood) [10]: 30 | Corn plant response rating [11, 29]: 30 | Plant response rating, Corn [11, 30]: 20 | Barnyardgrass plant response rating [12, 29]: 100 | Plant response rating, Barnyardgrass [12, 30]: 80 | Plant response rating, Galium ([13]; 500 g ai/ha, postemergence): 100 | Plant response rating, Galium ([13]; Postemergence, 125 g ai/ha): 90 | Plant response rating, Sedge, Umbrella (Flood) [14]: 70 | Plant response rating, Pigweed, Palmer ([15]; 500 g ai/ha, postemergence): 40 | Plant response rating, Pigweed, Palmer ([15]; Postemergence, 125 g ai/ha): 20 | Plant response rating, Corn ([16]; 500 g ai/ha, postemergence): 90 | Plant response rating, Corn ([16]; Postemergence, 125 g ai/ha): 30 | Pigweed, Palmer plant response rating [17, 29]: 100 | Plant response rating, Pigweed, Palmer [17, 30]: 90 | Soybean plant response rating [18, 29]: 50 | Plant response rating, Soybean [18, 30]: 0 | Plant response rating, Rice (Flood) [19]: 0 | Plant response rating, Barnyardgrass ([20]; 500 g ai/ha, postemergence): 70 | Plant response rating, Barnyardgrass ([20]; Postemergence, 125 g ai/ha): 40 | Plant response rating, Horseweed ([21]; 500 g ai/ha, postemergence): 30 | Plant response rating, Horseweed ([21]; Postemergence, 125 g ai/ha): 30 | Plant response rating, Ragweed ([22]; 500 g ai/ha, postemergence): 70 | Plant response rating, Ragweed ([22]; Postemergence, 125 g ai/ha): 70 | Ryegrass, Italian plant response rating [23, 29]: 100 | Plant response rating, Ryegrass, Italian [23, 30]: 90 | Plant response rating, Ryegrass, Italian ([24]; 500 g ai/ha, postemergence): 100 | Plant response rating, Ryegrass, Italian ([24]; Postemergence, 125 g ai/ha): 80 | Plant response rating, Oat, Wild ([25]; 500 g ai/ha, postemergence): 90 | Plant response rating, Oat, Wild ([25]; Postemergence, 125 g ai/ha): 60 | Plant response rating, Foxtail, Giant ([26]; 500 g ai/ha, postemergence): 90 | Plant response rating, Foxtail, Giant ([26]; Postemergence, 125 g ai/ha): 70 | Foxtail, Giant plant response rating [27, 29]: 100 | Plant response rating, Foxtail, Giant [27, 30]: 100 | Plant response rating, Kochia ([28]; 500 g ai/ha, postemergence): 80 | Plant response rating, Kochia ([28]; Postemergence, 125 g ai/ha): 70
